Measurements reported in patent US20100173874A1, “Delivery of modulators of glutamate-mediated neurotransmission to the inner ear” (priority 2002, published 2010).
Entries after “also recorded” stand apart in the source; their conditions may differ.

Columns and labels:
radial dendrites = conditions: intracochlear perfusion ten minutes prior to or concomitant with AMPA perfusion; cited from earlier work
auditory nerve fibers = assay: Single unit recording of auditory nerve fibers during intracochlear perfusion (salicylate-induced excitation); type: in vivo, guinea pig
Protocol: (§1) Experiments were performed on adult guinea pigs weighing from about 250 g to 300 g. The animals were anaesthetized with urethane (1.4 g/kg, i.p.) and artificially respired. Supplemental doses of urethane (0.35 g/kg, i.p.) were administered every 2 hr, or more often if the animal withdrew its paw in response to pressure applied to the paw. The rectal temperature was maintained at about 38.5±1° C., and heart rate (normal range 260-330 beats/min) monitored using EKG electrodes. The external auditory canal was opened near the tympanic annulus, exposing the tympanic membrane and allowing sound to reach the drum without any obstruction. At the end of the experiment, the animals were euthanized by intracardiac injection of an overdose of sodium pentobarbitone.
Salicylate Tinnitus Model. Salicylate, the active component of aspirin, is of special concern in auditory science because it induces tinnitus in humans. The efficacy of agents to treat tinnitus was tested by measuring firing rate of the auditory nerve fibers in presence of salicylate.
Briefly, the test solutions were applied into the cochlea using a multi-barrel perfusion pipette (ASI Instruments) placed into a hole made in the basal turn scala tympani and allowed to flow out of the cochlea through a hole (0.2 mm diameter) made at the apex. The cochlear nerve was exposed using a posterior fossa approach. Extracellular action potentials from single auditory nerve fibers were recorded with glass microelectrodes. Once a single unit was isolated, spontaneous activity was averaged over 10 seconds. The unit's tuning curves were then determined by a computer-controlled, threshold-tracking program using a 200 ms tone burst presented at 3/s. The threshold criterion was a difference of 10 spikes/s, i.e., 2 spikes difference between the tone (200 ms) and non-tone (200 ms) counting intervals. The program determined the characteristic frequency (CF) and the frequency tuning of the fiber by measuring the Q10dB defined as the CF divided by the bandwidth at 10 dB above the CF threshold.
An experiment was carried out to determine the ability of perfused Glutamate antagonists to suppress salicylate-induced excitation.

cochlea [1] = assay: CAP amplitude after acute intracochlear perfusion; type: in vivo, guinea pig; conditions: 8 kHz tone burst stimulation, mean of 5 animals
Protocol: as §1

cochlea [2] = assay: CAP amplitude after chronic round window perfusion; type: in vivo, guinea pig; conditions: 8 kHz tone burst stimulation, mean of 5 animals
Protocol: as §1

inner ear = conditions: acute cochlear perfusion; Wang et al., Neuroscience 2002; cited from earlier work
rats [3] = assay: Behavioral model of salicylate-induced tinnitus (active avoidance task)
Protocol: To verify that the excitatory action of sodium-salicylate on the auditory nerve fibers results in perception of tinnitus, a behavioral model was designed in rats based upon an active avoidance task. Animals were trained to respond to a conditioned stimulus consisting of a 10 kHz tone burst of 3 s duration.
(§2) CAP threshold shifts were calculated as the difference in dB between the auditory threshold at day 0 and the auditory threshold at each day. To avoid changes due to hearing loss, the intensity of sound eliciting behavioral responses was adjusted as a function of CAP threshold shift.
Gelfoam placed on the round window was used to apply drugs into the fluid of the cochlea.
To support the hypothesis that salicylate induced false positive via cochlear NMDA receptors, we applied other NMDA antagonists into the perilymphatic fluids using gelfoam placed on the round window of both ears.

guinea pigs = conditions: intracochlear perfusion; cited from earlier work
rats [4] = conditions: 300 mg/kg/day i.p. during 4 days; frequency range 2 to 26 KHz
Protocol: CAP thresholds were measured using an electrode chronically implanted on round window in response to a tone burst of 1 ms rise/fall time and 9 ms duration presented at a rate of 10 times per second.
as §2

[5] = intracochlear perfusion, 50 μM, 5 mM NaSal
[6] = 300 mg/kg/day i.p., daily during 4 days

O=c1[nH]c2cc([N+](=O)[O-])c([N+](=O)[O-])cc2[nH]c1=O [DNQX, 6-7-dinitorquinoxaline-2,3-dione]
radial dendrite swelling (radial dendrites): prevented most of the occurrence of radial dendrite swelling

CNC(=O)N1N=C(c2ccc(N)cc2)c2cc3c(cc2C[C@H]1C)OCO3 [GYKI 53784]
auditory nerve fiber activity evoked by sound (auditory nerve fibers; intracochlear perfusion, 50 μM): blocked both spontaneous activity and those evoked induced by sodium-salicylate or sound
spontaneous activity of the auditory nerve fiber (auditory nerve fibers; intracochlear perfusion, 50 μM): blocked both the spontaneous and the evoked activity
neural excitation of auditory nerve induced by sodium-salicylate (auditory nerve fibers; [5]): blocked both the spontaneous and the evoked activity

Nc1nc2ccc(OC(F)(F)F)cc2s1 [Riluzole]
mean amplitude of the CAP (cochlea [1]): reduce the CAP amplitude in a dose-dependent manner
mean amplitude of the CAP (cochlea [2]): reduced the CAP amplitude in the dose dependent manner
hearing after noise induced hearing loss (inner ear): rescues hearing after noise induced hearing loss

CC1CCCCC1(c1cccs1)N1CCCCC1 (stereo not shown) [gacyclidine, Gacyclidine]
spontaneous activity of the auditory nerve fiber (auditory nerve fibers; intracochlear perfusion, 50 μM): had no effect on spontaneous activity; also recorded: not the spontaneous activity of the fiber
neural excitation of auditory nerve induced by sodium-salicylate (auditory nerve fibers; [5]): suppressed neural excitation induced by sodium-salicylate; also recorded: suppressed neural excitation of auditory nerve induced by Na Salicylate
score under salicylate treatment (rats [3]; 50 μM, gelfoam on the round window): reduction of the score still been unchanged

COc1ccc2c(c1)c(CC(=O)O)c(C)n2C(=O)c1ccc(Cl)cc1 [indomethacin]
spontaneous activity of the auditory nerve fiber (auditory nerve fibers; intracochlear perfusion, 100 μM in artificial perilymph, fiber coding for 8 kHz): did not change the spontaneous activity of the auditory nerve fiber

O=C(O)c1cc(=O)c2ccccc2[nH]1 [kynurenate]
protection against sound-induced synaptic damage (guinea pigs): protects against sound-induced synaptic damage

O=C([O-])c1ccccc1O.[Na+] [sodium-salicylate]
spontaneous firing of the auditory nerve fibers (auditory nerve fibers; intracochlear application, 5 mM): reversibly increased spontaneous firing of the auditory nerve fibers
number of false positives (responses without sound) (rats [3]; [6]): drastic increase of the number of false positives
score (positive responses to sound, % of total) (rats [3]; [6]): reversible reduction of the score
score (positive responses to sound) (rats [3]; salicylate days 2 to 5, sound intensity adjusted as a function of CAP threshold shift): no significant decrease in the score was observed
false positive responses (rats [3]; salicylate treatment, sound intensity adjusted as a function of CAP threshold shift): false positive responses still remained
hearing loss (CAP threshold) (rats [4]): 30 dB

Dizocilpine [MK 801]
neural excitation of auditory nerve induced by sodium-salicylate (auditory nerve fibers; intracochlear perfusion, 10 μM): suppressed neural excitation induced by sodium-salicylate
spontaneous activity of the auditory nerve fiber (auditory nerve fibers; intracochlear perfusion, 10 μM): had no effect on spontaneous activity
score under salicylate treatment (rats [3]; 10 μM, gelfoam on the round window): reduction of the score still been unchanged
number of false positive responses induced by salicylate (rats [3]; 10 μM, gelfoam on the round window, day 4 of salicylate treatment, n=10): drastically reduced the occurrence of the false positive responses
